Assay results reported in US20090258888A1, “Pyrimidine Derivatives” (Bayer Pharmaceuticals Corporation, priority 2005, published 2009).
Structures can show the parent of a compound that is named as a salt. Where two headings read alike, the source gives them in different places.

Test system: HCT116 cells
Assay: HCT116 cytotoxic activity assay
Type: cell-based
Settings: Homo sapiens, HCT-116, 72 h with compound, Alamar Blue readout
[1] = read-out: IC50 in the HCT116 cytotoxic activity assay
[2] = read-out: IC50 in the HCT116 cytotoxic activity assay (upper bound of the class >500 nM)

Procedure: Human tumor cells, e.g., HCT116 cells, are seeded in a 96-well plate at 3.0×10^3 cells/well and grown in 100 μl of RPMI complete media (Invitrogen Corporation, Grand Island, N.Y.) containing 10% fetal bovine serum (Hyclone, Logan, Utah) and 10 mM HEPES and at 37° C. for 16 h in an incubator with 5% CO2. To each well, 50 μl of additional growth media containing 20 μM to 60 nM concentrations of compound with 0.2% DMSO is added. Cells are grown for another 72 h at 37° C. 20 μl of Alamar Blue (Trek Diagnostic Systems, Inc., Cleveland, Ohio) reagent is added to each well and incubated for 4 h at 37° C. Plates are read in a SpectraMax Gemini (Molecular Devices, CA) with 544 nm excitation and 590 nm emission wavelength. IC50 values are determined by linear regression analysis of log drug concentration versus percent inhibition.

Row | Structure (SMILES) | IC50 [1] [nM] | IC50 [2] [nM]
1 | C=C(OCC)c1cc(Nc2ccc(Oc3ccnc(C(F)(F)F)c3)cc2)nc(N)n1 [Example 1, 6-(1-ethoxyvinyl)-N^4-(4-{[2-(trifluoromethyl)pyridin-4-yl]oxy}phenyl)pyrimidine-2,4-diamine] | > 500 | ≤ 10000
2 | CC(O)c1cc(Nc2ccc(Oc3ccnc(C(F)(F)F)c3)cc2)nc(N)n1 (stereo not drawn) [Example 2, 1-{2-amino-6-[(4-{[2-(trifluoromethyl)pyridin-4-yl]ox-}phenyl)amino]pyrimidin-4-yl}ethanol] | > 500 | ≤ 10000
3 | N#Cc1cc(Oc2ccc(Nc3cc(/C=C/c4ccc(F)cc4)nc(N)n3)cc2)ccn1 [Example 3, 4-[4-({2-amino-6-[(E)-2-(4-fluorophenyl)vinyl]pyrimidin-4-yl}amino)phenoxy]pyridine-2-carbonitrile] | ≤ 500 | –
4 | Nc1nc(/C=C/c2ccc(F)cc2)cc(Nc2ccc(Oc3ccnc(C(F)(F)F)c3)cc2)n1 [Example 5, 6-[(E)-2-(4-fluorophenyl)vinyl]-N^4-(4-{[2-(trifluoromethyl)pyridin-4-yl]oxy}phenyl)pyrimidine-2,4-diamine] | ≤ 500 | –
5 | Nc1nc(/C=C/CCO)cc(Nc2ccc(Oc3ccnc(C(F)(F)F)c3)cc2)n1 [Example 8, (3E)-4-[2-amino-6-[(4-{[2-(trifluoromethyl)pyridin-4-yl]oxy}phenyl)amino]pyrimidin-4-yl]but-3-en-1-ol] | ≤ 500 | –
6 | NCCCc1cc(Nc2ccc(Oc3ccnc(C(F)(F)F)c3)cc2)nc(N)n1 [Example 14, 6-(3-aminopropyl)-N^4-(4-{[2-(trifluoromethyl)pyridin-4-yl]oxy}phenyl)pyrimidine-2,4-diamine hydrochloride] | > 500 | ≤ 10000
7 | Nc1nc(CCCCO)cc(Nc2ccc(Oc3ccnc(C(F)(F)F)c3)cc2)n1 [Example 15, 4-{2-amino-6-[(4-{[2-(trifluoromethyl)pyridin-4-yl]oxy}phenyl)amino]pyrimidin-4-yl}butan-1-ol] | ≤ 500 | –
8 | Nc1nc(CCCO)cc(Nc2ccc(Oc3ccnc(C(F)(F)F)c3)cc2)n1 [Example 16, 4-{2-amino-6-[(4-{[2-(trifluoromethyl)pyridin-4-yl]oxy}phenyl)amino]pyrimidin-4-yl}propan-1-ol] | ≤ 500 | –
9 | Nc1nc(CCC(O)CO)cc(Nc2ccc(Oc3ccnc(C(F)(F)F)c3)cc2)n1 (stereo not drawn) [Example 17, 4-{2-amino-6-[(4-{[2-(trifluoromethyl)pyridin-4-yl]oxy}phenyl)amino]pyrimidin-4-yl}butane-1,2-diol] | > 500 | ≤ 10000
10 | Nc1nc(C#Cc2ccc(F)cc2)cc(Nc2ccc(Oc3ccnc(C(F)(F)F)c3)cc2)n1 [Example 22, 6-[(4-fluorophenyl)ethynyl]-N^4-(4-{[2-(trifluoromethyl)pyridin-4-yl]oxy}phenyl)pyrimidine-2,4-diamine] | ≤ 500 | –
11 | Nc1nc(CCc2ccc(F)cc2)cc(Nc2ccc(Oc3ccnc(C(F)(F)F)c3)cc2)n1 [Example 29, 6-[2-(4-fluorophenyl)ethyl]-N^4-(4-{[2-(trifluoromethyl)pyridin-4-yl]oxy}phenyl)pyrimidine-2,4-diamine] | ≤ 500 | –
12 | COc1cccc(CCc2cc(Nc3ccc(Oc4ccnc(C(F)(F)F)c4)cc3)nc(N)n2)c1 [Example 31, 6-[2-(3-methoxyphenyl)ethyl]-N4-(4-{[2-(trifluoromethyl)pyridin-4-yl]oxy}phenyl)pyrimidine-2,4-diamine] | ≤ 500 | –
13 | Nc1nc(CCc2cccc(O)c2)cc(Nc2ccc(Oc3ccnc(C(F)(F)F)c3)cc2)n1 [Example 35, 3-(2-{2-amino-6-[(4-{[2-(trifluoromethyl)pyridin-4-yl]oxy}phenyl)-amino]pyrimidin-4-yl}ethyl)phenol] | > 500 | ≤ 10000
14 | Nc1ccc(/C=C/c2cc(Nc3ccc(Oc4ccnc(C(F)(F)F)c4)cc3)nc(N)n2)cc1 [Example 39A, 6-[(E)-2-(4-aminophenyl)vinyl]-N^4-(4-{[2-(trifluoromethyl)pyridin-4-yl]oxy}phenyl)pyrimidine-2,4-diamine trifluoroacetate] | > 500 | ≤ 10000
15 | Nc1ccc(/C=C\c2cc(Nc3ccc(Oc4ccnc(C(F)(F)F)c4)cc3)nc(N)n2)cc1 [Example 39B, 6-[(Z)-2-(4-aminophenyl)vinyl]-N^4-(4-{[2-(trifluoromethyl)pyridin-4-yl]oxy}phenyl)pyrimidine-2,4-diamine trifluoroacetate] | > 500 | ≤ 10000
16 | Nc1ccc(CCc2cc(Nc3ccc(Oc4ccnc(C(F)(F)F)c4)cc3)nc(N)n2)cc1 [Example 40, 6-[2-(4-aminophenyl)ethyl]-N^4-(4-{[2-(trifluoromethyl)pyridin-4-yl]oxy}phenyl)pyrimidine-2,4-diamine trifluoroacetate] | ≤ 500 | –
17 | Cc1cc(Oc2ccc(Nc3cc(/C=C/c4ccccc4)nc(N)n3)cc2)ccn1 [Example 41, N^4-{4-[(2-methylpyridin-4-yl)oxy]phenyl}-6-[(E)-2-phenylvinyl]-pyrimidine-2,4-diamine] | ≤ 500 | –
